# Reference: paper PMC10769483, “Death by a thousand cuts through kinase inhibitor combinations that maximize selectivity and enable rational multitargeting” (eLife, 2023)
# What was measured:
# [1] = system: ABL1(F317L), FYN, and LYN; experiment: MMS multiple-target analysis, Davis et al. dataset
Structure (SMILES),concentration of component in Mixture B required to inhibit all on-targets by at least 90% (CDC2L5 and TRKC),concentration of component in Mixture A required to inhibit all on-targets by at least 90% [1]
"Cc1ccc(F)c(NC(=O)Nc2ccc(-c3cccc4[nH]nc(N)c34)cc2)c1 [ABT-869, Linifanib]",226 nM,–
"COc1cc2c(Oc3ccc(NC(=O)C4(C(=O)Nc5ccc(F)cc5)CC4)cc3F)ccnc2cc1OCCCN1CCOCC1 [EXEL-2880/GSK-1363089, Foretinib]",40.0 nM,–
CSc1cccc(Nc2ncc3cc(-c4c(Cl)cccc4Cl)c(=O)n(C)c3n2)c1 [PD-173955],–,4.69 nM
"Cc1ccc(NC(=O)c2ccc(CN3CCN(C)CC3)cc2)cc1Nc1nc(-c2cccnc2)cs1 [masatinib, Masitinib]",–,661 nM
